The values that follow come from patent US4597900A, “Des^2 -glycine^8 -des^22 -calcitonin” (Armour Pharmaceutical Co., priority 1983, dated 1986).

SMILES strings stand for the structures. Where a SMILES comes first, the peptide text is derived from it. Bridges are numbered along the chain shown (N, C = ends).

The assay deals with serum calcium concentration. As to the kind of experiment: Biological assay of calcitonin analogs in vivo: reduction of serum calcium concentration, 2x2 parallel line assay. Also on record: species or system Rats. As to the method:
The biological potency of [Des-Serine^2 -Glycine^8 -Des-Tyrosine^22 ]salmon calcitonin was determined by comparing the reduction of serum calcium concentration which followed administration by graded doses of [Des-Ser^2 -Gly^8 -Des-Tyr^22 ]SCT and synthetic salmon calcitonin standard. Rats were divided into four groups of seven animals, and each group was assigned at random to a dose of standard or test solution. Low and high doses were chosen from the linear portion of the dose-response curve. For the salmon calcitonin standard, the values were 0.7 and 2.1 ng. peptide/100 g. body weight (BW). This dose approximates 3 and 9 MU/100 g. BW. Peptides were given by subcutaneous injection (0.2 ml/100 g. BW) and blood was withdrawn 1 hour later for serum calcium determination. Sera are processed and analyzed within two hours of collection. […]. Results were analyzed by a 2×2 parallel line assay [Gaddum, J. H., J. Pharm. Pharmacol., 6, 345 (1953)]. The standard salmon calcitonin used was independently determined to contain greater than 4,000 IU/mg. [Des-Ser^2 -Gly^8 -Des-Tyr^22 ]SCT assayed at 6900 IU/mg.

On to `CC(C)C[C@H](NC(=O)CNC(=O)[C@@H]1CSSC[C@H](N)C(=O)N[C@@H](CC(N)=O)C(=O)N[C@@H](CC(C)C)C(=O)N[C@@H](CO)C(=O)N[C@@H]([C@@H](C)O)C(=O)N1)C(=O)NCC(=O)N[C@@H](CCCCN)C(=O)N[C@@H](CC(C)C)C(=O)N[C@@H](CO)C(=O)N[C@@H](CCC(N)=O)C(=O)N[C@@H](CCC(=O)O)C(=O)N[C@@H](CC(C)C)C(=O)N[C@@H](Cc1c[nH]cn1)C(=O)N[C@@H](CCCCN)C(=O)N[C@@H](CC(C)C)C(=O)N[C@@H](CCC(N)=O)C(=O)N[C@H](C(=O)N1CCC[C@H]1C(=O)N[C@@H](CCCNC(=N)N)C(=O)N[C@H](C(=O)N[C@@H](CC(N)=O)C(=O)N[C@H](C(=O)NCC(=O)N[C@@H](CO)C(=O)NCC(=O)N[C@H](C(=O)N1CCC[C@H]1C(N)=O)[C@@H](C)O)[C@@H](C)O)[C@@H](C)O)[C@@H](C)O` [[Des-Ser^2 -Gly^8 -Des-Tyr^22]SCT, [Des-Serine^2 -Glycine^8 -Des-Tyrosine^22]salmon calcitonin] (H-CNLSTCGLGKLSQELHKLQTPRTNTGSGTP-NH2; disulfide 1-6), for which the “biological potency (reduction of serum calcium concentration)” value (rats, subcutaneous injection, blood withdrawn 1 hour later, compared with synthetic salmon calcitonin standard) is listed as 6900 IU/mg. With `CC(C)C[C@H](NC(=O)[C@H](CCCCN)NC(=O)CNC(=O)[C@H](CC(C)C)NC(=O)[C@@H](NC(=O)[C@@H]1CSSC[C@H](N)C(=O)N[C@@H](CO)C(=O)N[C@@H](CC(N)=O)C(=O)N[C@@H](CC(C)C)C(=O)N[C@@H](CO)C(=O)N[C@@H]([C@@H](C)O)C(=O)N1)C(C)C)C(=O)N[C@@H](CO)C(=O)N[C@@H](CCC(N)=O)C(=O)N[C@@H](CCC(=O)O)C(=O)N[C@@H](CC(C)C)C(=O)N[C@@H](Cc1c[nH]cn1)C(=O)N[C@@H](CCCCN)C(=O)N[C@@H](CC(C)C)C(=O)N[C@@H](CCC(N)=O)C(=O)N[C@H](C(=O)N[C@@H](Cc1ccc(O)cc1)C(=O)N1CCC[C@H]1C(=O)N[C@@H](CCCNC(=N)N)C(=O)N[C@H](C(=O)N[C@@H](CC(N)=O)C(=O)N[C@H](C(=O)NCC(=O)N[C@@H](CO)C(=O)NCC(=O)N[C@H](C(=O)N1CCC[C@H]1C(N)=O)[C@@H](C)O)[C@@H](C)O)[C@@H](C)O)[C@@H](C)O` [standard salmon calcitonin, Salmon calcitonin], the “potency of standard, independently determined” value (standard salmon calcitonin used in the assay) is “greater than 4,000 IU/mg”.
